Test results from US5387419A, “System for controlled release of antiarrhythmic agents” (The University of Michigan, priority 1993, dated 1995).

How the values were obtained:
[1] = test system: Ventricular tachycardia (VT) induced by rapid ventricular pacing; experiment: In vivo ventricular pacing study: conversion of ventricular tachycardia induced by rapid ventricular pacing; set-up: species or system dog (male mongrel dogs); conditions: for Peak % Increase in VT Threshold / Conversion: mean ± standard error; for Peak % Increase in VT Threshold: same patches: lidocaine/Tecoflex, procainamide/Thyomer, amiodarone/Thyomer with polyethyleneglycol, NiCl2/Thyomer; for Effectiveness in converting ventricular tachycardia: in words, controlled release dosage form, epicardial; for Conversion: patches: lidocaine 28% in Tecoflex (N 16), procainamide 30% in Thyomer (7), amiodarone 30% in Thyomer with 10% polyethyleneglycol 200 (3), NiCl2 50% in Thyomer (4)
Description: Ventricular tachycardia was induced and maintained by rapid ventricular pacing in an open-chest dog model using male mongrel dogs (10-15 kg). Three sets of bipolar epicardial electrodes were placed at 2 cm distances from the left ventricular apex toward the base of the heart. A Grass Model 8 stimulator (Grass Instruments, delivered continuous electrical stimulation as 2-msec square wave impulses with a 50-msec cycle length via a stimulus isolation unit (Bloom Associates, Reading, Pa.). The stimulus isolation unit also repeatedly monitored the pacing current thresholds. After induction of ventricular tachycardia, a controlled release dosage form of the present invention in the shape of a patch of the drug-loaded polymeric matrix material was placed adjacent to the stimulating electrode. The time required to convert the ventricular tachycardia to sinus rhythm was measured, as well as the time course of the quantitative change for sustaining the induction of ventricular tachycardia. The effects of controlled release were monitored for up to 4 hours after conversion to normal sinus rhythm.
All other dosage forms were fabricated by dissolving the therapeutic agent in dimethylacetamide at a concentration of 100 mg/ml therapeutic agent. This solution was further dissolved in a 10% solution of a Thyomer polyurethane and solvent cast into a 0.2 mm films. […] Controls comprised patches of each polymeric matrix material.

[2] = oral; cited from earlier work
[3] = test system: Ischemia-induced ventricular tachycardia; experiment: In vivo acute ischemia-induced ventricular tachycardia study; set-up: species or system dog; conditions: for VT (per/minute): number of VT episodes per minute following epicardial placement: average for N dogs, patches (dose mg/kg/2hr): lidocaine 28% Tecoflex (0.23, N 5), propranolol 30% MPU-5 (0.14, 6), D-sotalol 30% MPU-5 (0.20, 9), verapamil 30% MPU-5 (0.30, 11); for Effectiveness against ischemia-induced ventricular tachycardia: in words, epicardial controlled release
Experimental: Controlled release dosage forms of the present invention have been successful in preventing ischemia-induced ventricular tachycardia in a canine model. Ventricular occlusions of the left anterior descending coronary artery of a dog were produced by exposing and isolating the artery in a dog under anesthesia. A snare with a sliding closure was placed around the artery. Ventricular tachycardia was produced by closing the snare for 10 minutes to shut off the blood supply to left ventricle. The snare was opened for an hour, and then the snare was closed for 10 minutes. This procedure can be repeated up six times and simulates a heart attack. Ventricular tachycardia (VT) was defined as the occurrence of 3 or more sequential ventricular premature beats. The efficacy of various controlled release dosage forms of the present invention were documented by continuous recording of the electrophysiologic data on a Hewlett Packard Physiologic Records, and an 8-channel analogue tape deck (Hewlett Packard, Philadelphia, Pa.).
The data is expressed as the average for the number N of dogs per group. Episodes of VT were paced at one per minutes.

normal cardiac function = experiment: Other studies: effects of transmyocardial lidocaine on normal cardiac function; type: in vivo; conditions: lidocaine administered by transmyocardial route

Compound | Peak % Increase in VT Threshold [1] | VT (per/minute): number of VT episodes per minute following epicardial placement [3] | further results
CCCCc1oc2ccccc2c1C(=O)c1cc(I)c(OCCN(CC)CC)c(I)c1 [Amiodarone, amiodarone] | 36.1 ± 12.7% |  | Severe side effects, share of patients [2]: over 70%
CC(C)NC[C@@H](O)c1ccc(NS(C)(=O)=O)cc1 [D-Sotalol, d-sotalol] |  | .046 ± .11 per/minute | Effectiveness against ischemia-induced ventricular tachycardia [3]: the most effective for arrhythmias due to acute myocardial ischemia
CCN(CC)CC(=O)Nc1c(C)cccc1C [Lidocaine, lidocaine] | 367.7 ± 183.1% | 0.6 ± 0.2 per/minute | Other effects on normal cardiac function (normal cardiac function): no other significant effects on normal cardiac function
[Cl][Ni][Cl] [NiCl2, nickel chloride] | 122.6 ± 101.3% |  | Effectiveness in converting ventricular tachycardia [1]: effective to convert tachycardia to normal sinus rhythm; Conversion [1]: 2.08 ± 1.71 min
CCN(CC)CCNC(=O)c1ccc(N)cc1 [Procainamide, procainamide] | 206.7 ± 172.6% |  | Effectiveness in converting ventricular tachycardia [1]: effective in converting ventricular tachycardia; Conversion [1]: 4.05 ± 3.15 min
CC(C)NCC(O)COc1cccc2ccccc12 (stereo not shown) [Propranolol, propranolol] |  | 1.22 ± .12 per/minute | 
COc1ccc(CCN(C)CCCC(C#N)(c2ccc(OC)c(OC)c2)C(C)C)cc1OC (stereo not shown) [Verapamil, verapamil] |  | 0.10 ± .03 per/minute | Effectiveness against ischemia-induced ventricular tachycardia [3]: the most effective for arrhythmias due to acute myocardial ischemia
